We go through 1 molecule from patent US5326902A, “Oxyalkyne compounds, pharmaceutical compositions containing them and processes for preparing such compounds and compositions” (Gruenenthal GmbH, priority 1992, dated 1994).

Each structure is given as a SMILES string.

Test [1] deals with T1, 5-lipoxygenase (Rattus norvegicus, UniProt P12527).
T1 construct: endogenous in cells; host or cells: RBL-1 cells (rat basophilic leukemia)
T1 sequence (P12527 1-673): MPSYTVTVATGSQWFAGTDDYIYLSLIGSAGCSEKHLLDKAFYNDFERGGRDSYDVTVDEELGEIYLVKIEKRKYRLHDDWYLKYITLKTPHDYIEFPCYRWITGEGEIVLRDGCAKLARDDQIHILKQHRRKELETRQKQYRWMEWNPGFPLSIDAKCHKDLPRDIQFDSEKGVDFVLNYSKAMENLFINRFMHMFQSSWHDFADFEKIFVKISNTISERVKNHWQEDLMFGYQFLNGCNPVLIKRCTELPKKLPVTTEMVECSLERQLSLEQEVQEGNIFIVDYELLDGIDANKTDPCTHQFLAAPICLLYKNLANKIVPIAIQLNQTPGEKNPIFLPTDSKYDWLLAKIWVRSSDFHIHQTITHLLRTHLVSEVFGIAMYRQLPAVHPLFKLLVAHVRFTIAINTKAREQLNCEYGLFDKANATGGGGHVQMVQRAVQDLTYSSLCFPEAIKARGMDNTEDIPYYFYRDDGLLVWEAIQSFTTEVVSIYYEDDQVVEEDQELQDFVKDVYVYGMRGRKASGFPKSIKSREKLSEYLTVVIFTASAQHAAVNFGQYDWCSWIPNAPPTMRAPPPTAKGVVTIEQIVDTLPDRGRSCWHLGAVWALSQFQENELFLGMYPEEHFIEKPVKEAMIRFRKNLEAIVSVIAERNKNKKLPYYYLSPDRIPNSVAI
In words: Inhibition of Cell-free 5-lipoxygenase from RBL-1-cells (polarographic, 10,000 × g supernatant). The format is biochemical. The settings on record: 10,000 × g supernatant of homogenized RBL-1-cells; arachidonic acid 75 μM; 35° C.; calculated IC50. Here is the method:
Cell-free 5-lipoxygenase was polarographically measured from 10,000 × g supernatant of homogenized rat basophilic leucemia cells (M. Haurand & L. Flohe in Biol. Chem. Hoppe-Seyler 369, 133 to 142 (1988)). After preincubation of the 10,000 × g supernatant with arachidonic acid (75 μM), ATP (adenosine triphosphate; 4 mM), reduced glutathione (4 mM), and either a compound according to the invention (0.1 to 100 μM) or a solvent (ethanol and/or dimethyl sulfoxide) at 35° C. for 5 minutes, the lipoxygenase reaction was initiated by addition of calcium chloride (3 mM) and simultaneously recorded.
The activity of 5-lipoxygenase was determined from the difference in the pO2 -decrease before and after addition of calcium chloride. The evaluation included the initial rate of the reaction after the lag-phase as well as the duration of the lag-phase. In the concentration range of from 3 to 50 μM, the test substances induced lag-phases between 20 and 60 seconds.

In test [2] the test system is 5-lipoxygenase. In words: Inhibition of 5-lipoxygenase in Rat Blood After Oral Administration (ex vivo iLTB4-formation). The settings on record: 21.5 mg/kg oral, male Wistar rats, one hour after administration. Here is the method: The bioavailability of the compounds of formula I as 5-lipoxygenase inhibitors was characterized by means of an ex vivo biochemical assay method described by Tateson et al. in Brit. J. Pharmacol. 94, 528 (1988): A compound of formula I was orally administered to male rats (Wistar strain) at a dose of 21.5 mg/kg. After lethal CO2 -narcosis one hour after administration, the rats were bled by heart puncture with added heparin as an anticoagulant. Aliquots of the whole blood were incubated at 37° C. for 30 minutes in a water bath with calcium ionophore A 23 187 at an end concentration of 15 μg/ml. At the end of the incubation, the samples were centrifuged, and the concentration of the immunoreactive LTB4 (iLTB4) in aliquots of cell-free plasma was determined by radioimmunoassay (3H-LTB4 -RIA, Amersham). To enable calculation of the inhibition in percent of ex vivo iLTB4 -formation in whole rat blood treated with a compound according to the invention, rats orally treated with an appropriate vehicle solution were included in all experiments, and aliquots of their blood were run in parallel and were processed in the same way as described. The average iLTB4 -content of the plasma of the vehicletreated rats served as a 100% value. The activity in percent of the ex vivo iLTB4 -formation after oral administration of a compound according to the invention was calculated by dividing the average value of the iLTB4 -contents in ng iLTB4 /ml of the group treated with a compound according to the invention by the average value of the iLTB4 -contents in ng iLTB4 /ml of the vehicle treated group and subsequent multiplication by a factor of 100. The respective inhibition in percent was calculated by subtracting the activity in percent from 100.

In another test the target is T2, 12-lipoxygenase (Homo sapiens, UniProt P18054).
T2 sequence (P18054 1-663): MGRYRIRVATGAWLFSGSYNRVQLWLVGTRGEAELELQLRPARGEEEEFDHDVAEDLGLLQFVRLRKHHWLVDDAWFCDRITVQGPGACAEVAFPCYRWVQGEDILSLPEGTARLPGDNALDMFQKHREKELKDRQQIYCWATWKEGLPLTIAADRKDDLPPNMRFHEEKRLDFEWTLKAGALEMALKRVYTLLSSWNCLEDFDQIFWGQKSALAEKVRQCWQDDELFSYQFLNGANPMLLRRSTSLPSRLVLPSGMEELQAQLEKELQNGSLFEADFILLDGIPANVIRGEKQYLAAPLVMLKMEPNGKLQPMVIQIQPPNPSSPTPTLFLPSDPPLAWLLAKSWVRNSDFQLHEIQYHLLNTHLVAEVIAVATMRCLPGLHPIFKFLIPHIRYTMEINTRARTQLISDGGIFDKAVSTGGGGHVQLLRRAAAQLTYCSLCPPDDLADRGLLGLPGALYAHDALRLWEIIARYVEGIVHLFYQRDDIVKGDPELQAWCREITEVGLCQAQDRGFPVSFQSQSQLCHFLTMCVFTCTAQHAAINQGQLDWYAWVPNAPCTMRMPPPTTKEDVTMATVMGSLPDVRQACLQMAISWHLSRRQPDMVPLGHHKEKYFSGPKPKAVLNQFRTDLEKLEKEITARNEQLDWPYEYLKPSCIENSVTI
In words: Inhibition of 12-lipoxygenase in human blood. The format is cell-based. Details: 3 ml aliquots of human whole blood treated with heparin; from tissue; host or cells: human whole blood (heparinized). The settings on record: human whole blood; calcium ionophore A 23 187 15 μg/ml; 37° C., 30 minutes; 12-HETE by HPLC. The method, then:
3 ml aliquots of human whole blood treated with heparin were incubated either with a compound according to the invention or with dimethyl sulfoxide at 37° C. for 5 minutes. Then 12-lipoxygenase was activated by addition of calcium ionophore A 23 187 (15 μg/ml blood). After incubation at 37° C. for 30 minutes and centrifugation, cell-free plasma was obtained. Plasma protein was precipitated by addition of 2 ml of ethanol per ml of plasma and then separated by centrifugation. After adjusting the ethanol content in the supernatant with water to 10% by volume, the 12-lipoxygenase product 12-HETE was enriched by solid phase extraction using an octadecyl silica column. The methanolic eluate was evaporated to dryness, diluted in 40% by volume of methanol, and the 12-HETE-content was determined by HPLC. The IC50 -values of the compounds of the invention prepared according to Examples 1, 8 and 16 were 2, 4 and 3 μmolar, respectively.

Test [3] concerns the target T1, 5-lipoxygenase. In words: Inhibition of 5-lipoxygenase in RBL-1-cells. As to conditions: 20 μM [14C]-arachidonic acid, 20 μM calcium ionophore A 23 187, 10 minutes. The format is cell-based. Here is the method:
To determine the inhibition of 5-lipoxygenase, rat basophilic leukemia cells (RBL-1-cells) were cultured in vitro, harvested by centrifugation, washed with 50 mM potassium phosphate buffer of pH 7.4, and then suspended in this buffer at 1×10^7 cells/ml. Indomethacin (10 μM) and calcium chloride (2 mM) were added to 1 ml portions of this suspension, and then the mixture was incubated either in the presence of a compound according to the invention in a concentration range of from 0,1 μM to 100 μM or in the presence of a solvent (ethanol and/or dimethyl sulfoxide) for 3 minutes and thereafter with 20 μM of [^14 C]-arachidonic acid and 20 μM of calcium ionophore A 23 187 for 10 minutes. The reaction was stopped by adding 20 μl of glacial acetic acid, and then the mixture was extracted with ethyl acetate to isolate the metabolites of arachidonic acid formed by the enzymatic action of 5-lipoxygenase. These were separated by thin layer chromatography using a solvent mixture known to be suitable for lipoxygenase products [c.f. Jakschik et al., Biochem. Biophys. Res. Commun. 102, 624 (1981)].
The distribution of radioactivity among the different metabolites of arachidonic acid was measured using a TLC Linear Analyzer. By correlating the percentage amounts of the products formed under the action of 5-lipoxygenase (5HETE, isomers of LTB4) in the absence as well as in the presence of different concentrations of compounds according to the invention, the IC50 -values, i.e. the concentrations which cause a 50% inhibition of 5-lipoxygenase, were determined graphically from semilogarithmic plots.

One may read the IC50 as the concentration at which inhibition is half-maximal.

As to `NC(=O)N(O)Cc1ccc(C(O)C#Cc2ccccc2)cc1` (stereo not shown) [Example 8, N-Hydroxy-N-[4-[1-hydroxy-3-phenyl-prop-2-yn-1-yl]benzyl]urea], the IC50 at 5-lipoxygenase [1] was 8 µM; on 12-lipoxygenase it was 4 µM; on 5-lipoxygenase [3] it was 7 µM. Besides, the “Inhibition [%] of ex vivo iLTB4-formation” value with 5-lipoxygenase [2] came out at 65%.
